Source: patent publication US20120214847A1, “2-[1-PHENYL-5-HYDROXY-4a-SUBSTITUTED-HEXAHYDROCYCLOPENTA[F]INDAZOL-5-YL]ETHYL PHENYL DERIVATIVES AS GLUCOCORTICOID RECEPTOR LIGANDS” (Merck Sharp & Dohme Corp., priority 2009, published 2012)

Target: T1, human GR (Homo sapiens, UniProt P04150)
T1 construct: naturally expresses the human GR; endogenous in cells
T1 sequence (P04150 1-777): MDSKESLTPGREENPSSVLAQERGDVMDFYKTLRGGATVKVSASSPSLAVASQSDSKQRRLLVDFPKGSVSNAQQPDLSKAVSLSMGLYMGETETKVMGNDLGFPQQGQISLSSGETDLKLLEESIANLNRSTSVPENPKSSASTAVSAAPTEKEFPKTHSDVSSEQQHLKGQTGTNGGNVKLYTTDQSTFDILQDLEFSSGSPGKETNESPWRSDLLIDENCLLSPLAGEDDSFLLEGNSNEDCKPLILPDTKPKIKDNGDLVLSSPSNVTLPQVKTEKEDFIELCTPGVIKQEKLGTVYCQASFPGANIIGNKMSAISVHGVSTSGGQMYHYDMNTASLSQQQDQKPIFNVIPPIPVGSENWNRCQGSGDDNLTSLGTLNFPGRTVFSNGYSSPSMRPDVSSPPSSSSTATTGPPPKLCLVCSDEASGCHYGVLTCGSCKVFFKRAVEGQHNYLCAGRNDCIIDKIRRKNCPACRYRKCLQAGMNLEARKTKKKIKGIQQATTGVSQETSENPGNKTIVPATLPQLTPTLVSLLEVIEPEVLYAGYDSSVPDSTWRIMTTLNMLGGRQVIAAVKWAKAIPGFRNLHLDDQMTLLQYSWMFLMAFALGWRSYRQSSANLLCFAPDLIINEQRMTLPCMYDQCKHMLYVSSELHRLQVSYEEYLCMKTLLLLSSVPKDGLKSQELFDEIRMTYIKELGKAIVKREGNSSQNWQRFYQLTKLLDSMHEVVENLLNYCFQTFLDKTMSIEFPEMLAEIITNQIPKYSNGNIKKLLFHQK
Assay: Trans-activation modulation of glucocorticoid receptor (GRAMMER), MMTV-LUC reporter in A549 cells
Format: cell-based
Details: for Emax: A549, A549 cells, read-out: Transactivation A549 Cells Grammer Emax (%); for Emax / Transactivation A549 Cells Grammer Emax (%): Emax relative to the activity obtained with 300 nM dexamethasone; for EC50 / Transactivation A549 Cells Grammer Emax (%): A549 cells; for EC50: IP = inflection point, read-out: Transactivation A549 Cells Grammer IP
Source text: Trans-Activation Modulation of Glucocorticoid Receptor (GRAMMER)
This assay assesses the ability of test compounds to control transcription from the MMTV-LUC reporter gene in lung adenocarcinoma A549 cells or HeLa cells, a human […] cell line that naturally expresses the human GR. The assay measures induction of a modified MMTV LTR/promoter linked to the LUC reporter gene.
The routine transient assay consists of plating 7,000-25,000 cells/well of a white, clear-bottom 96-well plate. Alternatively, 384-well plates can be used at a cell concentration of 10,000/well. The media that the cells are plated in is “exponential growth medium” which consists of phenol red-free RPMI1640 containing 10% FBS, 4 mM L-glutamine, 20 mM HEPES, 10 ug/mL human insulin, and 20 ug/mL gentamicin. Incubator conditions are 37° C. and 5% C02. The transfection is done in batch mode. The cells are trypsinized and counted to the right cell number in the proper amount of fresh media. It is then gently mixed with the FuGene6/DNA 25 mix and plated onto the 96 or 384-well plate, all the wells receive 100 uL or 40 uL, respectively, of medium+lipid/DNA complex then incubated 37° C. overnight. The transfection cocktail consists of serum-free OptiMEM, FuGene6 reagent and DNA. The manufacturer's (Roche Biochemical) protocol for cocktail setup is as follows: The lipid to DNA ratio is approximately 2.5:1 and the incubation time is 20 min at room temperature. Sixteen to 24 h after transfection, the cells are treated with dexamethasone to a final concentration of 10 nM as well as the compound of interest, such that final DMSO (vehicle) concentration is equal to or less than 1%. Each plate also contains samples that are treated with 10 nM dexamethasone alone, which is used as the 100% activity control. The cells are exposed to the compounds for 24 h. After 24 h, the cells are lysed by a Promega cell culture lysis buffer for approximately 30 min and then the luciferase activity in the extracts is assayed in the 96-well format luminometer. In 384 well format, Steady-Glo (Promega) or Steady-Lite (PerkinElmer) can be used by adding an equal volume of reagent to the media present in each well. Activity induced by 10 nM dexamethasone alone is set at 100% activity. Antagonist activity is calculated by determining the decrease in dexamethasone-induced activity in response to compound treatment relative to samples that were treated with dexamethasone alone. Results are expressed as % inhibition of 10 nM dexamethasone activity or as fold of 10 nM dexamethasone activity. This transactivation assay can be performed in an agonist and antagonist mode to identify these different activities.
Activity of test compounds is calculated as the Emax relative to the activity obtained with 300 nM dexamethasone. […] The exemplified tissue selective glucocorticoid receptor modulators of the present invention display agonist activity in this assay of greater than 5% and less than 100%, and maximal transactivation activity less then maximal transrepression activity. The action of compounds is also tested in an antagonist mode (Anti-GRAMMER) in which the cells are treated with medium containing an agonist such as 10 nM DEX and the ability of agents to inhibit the activation by an agonist is measured.

Row | Emax | EC50 | Transactivation A549 Cells Grammer Emax (%) | SMILES
1 | 18% | 156 nM | – | CC[C@]12Cc3cnn(-c4ccc(F)cc4)c3C=C1CC[C@@]2(O)CCc1ccc(F)cn1 [Example 19, (4aS,5R)-4a-Ethyl-1-(4-fluorophenyl)-5-[2-(5-fluoropyridin-2-yl)ethyl]-1,4,4a,5,6,7-hexahydrocyclopenta[f]indazol-5-ol]
2 | 51% | 45 nM | – | CC[C@]12Cc3cnn(-c4ccccc4)c3C=C1CC[C@@]2(O)CCc1ccccc1C(N)=O [Example 20, 2-{2-[(4aS,5R)-4a-Ethyl-5-hydroxy-1-phenyl-1,4,4a,5,6,7-hexahydrocyclopenta[f]indazol-5-yl]ethyl}benzamide]
3 | 28% | 123 nM | – | CC[C@]12Cc3cnn(-c4ccc(F)cc4)c3C=C1CC[C@@]2(O)CCc1ccccc1CCC(N)=O [Example 22, 3-(2-{2-[(4aS,5R)-4a-Ethyl-1-(4-fluorophenyl)-5-hydroxy-1,4,4a,5,6,7-hexahydrocyclopenta[f]indazol-5-yl]ethyl}phenyl)propanamide]
4 | – | 195 nM | 22% | CC[C@]12Cc3cnn(-c4ccc(F)cc4)c3C=C1CC[C@@]2(O)CCc1ccccc1C(O)C(N)=O (stereo partly drawn) [Example 25, 2-(2-{2-[(4aS,5R)-4a-Ethyl-1-(4-fluorophenyl)-5-hydroxy-1,4,4a,5,6,7-hexahydrocyclopenta[f]indazol-5-yl]ethyl}phenyl)-2-hydroxyacetamide]
5 | – | 161 nM | 58% | CC[C@]12Cc3cnn(-c4ccc(F)cc4)c3C=C1CC[C@@]2(O)CCc1ccccc1C(O)C(N)=O (stereo partly drawn) [Example 26, 2-(2-{2-[(4aS,5R)-4a-Ethyl-1-(4-fluorophenyl)-5-hydroxy-1,4,4a,5,6,7-hexahydrocyclopenta[f]indazol-5-yl]ethyl}phenyl)-2-hydroxyacetamide]
6 | 49% | 10 nM | – | CC[C@]12Cc3cnn(-c4ccc(F)cc4)c3C=C1CC[C@@]2(O)CCc1cccc(OC)c1C(N)=O [Example 37, 2-{2-[(4aS,5R)-4a-Ethyl-1-(4-fluorophenyl)-5-hydroxy-1,4,4a,5,6,7-hexahydrocyclopenta[f]indazol-5-yl]ethyl}-6-methoxybenzamide]

Second part, the compound before the results:

Row | SMILES | Emax | EC50 | Transactivation A549 Cells Grammer Emax (%)
7 | CC[C@]12Cc3cnn(-c4ccc(F)cc4)c3C=C1CC[C@@]2(O)CCc1cncc(F)c1 [Example 21, (4aS,5R)-4a-Ethyl-1-(4-fluorophenyl)-5-[2-(5-fluoropyridin-3-yl)ethyl]-1,4,4a,5,6,7-hexahydrocyclopenta[f]indazol-5-ol] | 31% | 76 nM | –
8 | NC(=O)c1ccccc1CC[C@]1(O)CCC2=Cc3c(cnn3-c3ccc(F)cc3)C[C@@]21C1CC1 [Example 23, 2-{2-[(4aR,5R)-4a-Cyclopropyl-1-(4-fluorophenyl)-5-hydroxy-1,4,4a,5,6,7-hexahydrocyclopenta[f]indazol-5-yl]ethyl}benzamide] | 21% | 37 nM | –
9 | NS(=O)(=O)c1ccccc1CC[C@]1(O)CCC2=Cc3c(cnn3-c3cccnc3)C[C@@]21C1CC1 [Example 24, 2-{2-[(4aR,5R)-4a-Cyclopropyl-5-hydroxy-1-(pyridin-3-yl)-1,4,4a,5,6,7-hexahydrocyclopenta[f]indazol-5-yl]ethyl}benzenesulfonamide] | 35% | 24 nM | –
10 | N#Cc1ccccc1CC[C@]1(O)CCC2=Cc3c(cnn3-c3ccccc3)C[C@@]21C1CC1 [Example 27, 2-{2-[(4aR,5R)-4a-Cyclopropyl-5-hydroxy-1-phenyl-1,4,4a,5,6,7-hexahydrocyclopenta[f]indazol-5-yl]ethyl}benzonitrile] | 13% | 23 nM | –
11 | N#Cc1c(F)cccc1CC[C@]1(O)CCC2=Cc3c(cnn3-c3ccccc3)C[C@@]21C1CC1 [Example 28, 2-{2-[(4aR,5R)-4a-Cyclopropyl-5-hydroxy-1-phenyl-1,4,4a,5,6,7-hexahydrocyclopenta[f]indazol-5-yl]ethyl}-6-fluorobenzonitrile] | 8% | 32 nM | –
12 | NC(=O)c1ccccc1CC[C@]1(O)CCC2=Cc3c(cnn3-c3ccccc3)C[C@@]21C1CC1 [Example 29, 2-{2-[(4aR,5R)-4a-Cyclopropyl-5-hydroxy-1-phenyl-1,4,4a,5,6,7-hexahydrocyclopenta[f]indazol-5-yl]ethyl}benzamide] | 12% | 74 nM | –
13 | N#Cc1ccccc1CC[C@]1(O)CCC2=Cc3c(cnn3-c3cccnc3)C[C@@]21C1CC1 [Example 30, 2-{2-[(4aR,5R)-4a-Cyclopropyl-5-hydroxy-1-(pyridin-3-yl)-1,4,4a,5,6,7-hexahydrocyclopenta[f]indazol-5-yl]ethyl}benzonitrile] | 4% | 126 nM | –
14 | N#Cc1cccnc1CC[C@]1(O)CCC2=Cc3c(cnn3-c3ccc(F)cc3)C[C@@]21C1CC1 [Example 31, 2-{2-[(4aR,5R)-4a-Cyclopropyl-1-(4-fluorophenyl)-5-hydroxy-1,4,4a,5,6,7-hexahydrocyclopenta[f]indazol-5-yl]ethyl}pyridine-3-carbonitrile] | 24% | 9 nM | –
15 | O[C@@]1(CCc2cc(C(F)(F)F)ccn2)CCC2=Cc3c(cnn3-c3ccc(F)cc3)C[C@@]21C1CC1 [Example 32, (4aR,5R)-4a-Cyclopropyl-1-(4-fluorophenyl)-5-{2-[4-(trifluoromethyl)pyridin-2-yl]ethyl}-1,4,4a,5,6,7-hexahydrocyclopenta[f]indazol-5-ol] | 11% | 65 nM | –
16 | CC[C@]12Cc3cnn(-c4ccc(F)cc4)c3C=C1CC[C@@]2(O)CCc1cc(C)ccn1 [Example 33, (4aS,5R)-4a-Ethyl-1-(4-fluorophenyl)-5-[2-(4-methylpyridin-2-yl)ethyl]-1,4,4a,5,6,7-hexahydrocyclopenta[f]indazol-5-ol] | 27% | 72 nM | –
17 | CC[C@]12Cc3cnn(-c4ccc(F)cc4)c3C=C1CC[C@@]2(O)CCc1cc(C(F)(F)F)ccn1 [Example 34, (4aS,5R)-4a-Ethyl-1-(4-fluorophenyl)-5-{2-[4-(trifluoromethyl)pyridin-2-yl]ethyl}-1,4,4a,5,6,7-hexahydrocyclopenta[f]indazol-5-ol] | 24% | 91 nM | –
18 | N#Cc1ccnc(CC[C@]2(O)CCC3=Cc4c(cnn4-c4ccc(F)cc4)C[C@@]32C2CC2)c1 [Example 35, 2-{2-[(4aR,5R)-4a-Cyclopropyl-1-(4-fluorophenyl)-5-hydroxy-1,4,4a,5,6,7-hexahydrocyclopenta[f]indazol-5-yl]ethyl}pyridine-4-carbonitrile] | 17% | 25 nM | –
19 | Cc1ccnc(CC[C@]2(O)CCC3=Cc4c(cnn4-c4ccc(F)cc4)C[C@@]32C2CC2)c1 [Example 36, (4aR,5R)-4a-Cyclopropyl-1-(4-fluorophenyl)-5-[2-(4-methylpyridin-2-yl)ethyl]-1,4,4a,5,6,7-hexahydrocyclopenta[f]indazol-5-ol] | 11% | 59 nM | –
